Experimental data reported in ChEMBL document CHEMBL1201862, “PubChem BioAssay data set” (2004).
The source made the active and inactive calls.

Experiments:
[1] = molecular target: Ras and Rab interactor 1/Tyrosine-protein kinase ABL1 (Homo sapiens, UniProt P00519+Q13671); format: functional;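 note: biochemical TR-FRET dose-response test measuring inhibition of binding between Rin1 and Abl proteins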
[2] = molecular target: T1, Carboxy-terminal domain RNA polymerase II polypeptide A small phosphatase 1 (Homo sapiens, UniProt Q9GZU7); assay: inhibitors of CTDSP1, concentration-response testing, biochemical assay, absorbance-based, actives from ultra-high-throughput screening (AID 540297); format: functional
T1 sequence (Q9GZU7 whole entry): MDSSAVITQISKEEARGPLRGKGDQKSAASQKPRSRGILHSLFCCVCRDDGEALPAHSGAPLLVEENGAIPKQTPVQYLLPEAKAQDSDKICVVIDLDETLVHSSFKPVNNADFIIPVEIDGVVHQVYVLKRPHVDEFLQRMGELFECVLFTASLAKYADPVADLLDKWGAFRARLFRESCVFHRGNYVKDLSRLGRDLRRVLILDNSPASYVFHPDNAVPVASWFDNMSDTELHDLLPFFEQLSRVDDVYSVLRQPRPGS

[3] = molecular target: 72 kDa type IV collagenase (Homo sapiens, UniProt P08253); assay: Dose Response validation of uHTS RPN11 inhibitor hits using a MMP-2 Fluorescence assay.; format: functional
Chain of 72 kDa type IV collagenase (P08253 whole entry): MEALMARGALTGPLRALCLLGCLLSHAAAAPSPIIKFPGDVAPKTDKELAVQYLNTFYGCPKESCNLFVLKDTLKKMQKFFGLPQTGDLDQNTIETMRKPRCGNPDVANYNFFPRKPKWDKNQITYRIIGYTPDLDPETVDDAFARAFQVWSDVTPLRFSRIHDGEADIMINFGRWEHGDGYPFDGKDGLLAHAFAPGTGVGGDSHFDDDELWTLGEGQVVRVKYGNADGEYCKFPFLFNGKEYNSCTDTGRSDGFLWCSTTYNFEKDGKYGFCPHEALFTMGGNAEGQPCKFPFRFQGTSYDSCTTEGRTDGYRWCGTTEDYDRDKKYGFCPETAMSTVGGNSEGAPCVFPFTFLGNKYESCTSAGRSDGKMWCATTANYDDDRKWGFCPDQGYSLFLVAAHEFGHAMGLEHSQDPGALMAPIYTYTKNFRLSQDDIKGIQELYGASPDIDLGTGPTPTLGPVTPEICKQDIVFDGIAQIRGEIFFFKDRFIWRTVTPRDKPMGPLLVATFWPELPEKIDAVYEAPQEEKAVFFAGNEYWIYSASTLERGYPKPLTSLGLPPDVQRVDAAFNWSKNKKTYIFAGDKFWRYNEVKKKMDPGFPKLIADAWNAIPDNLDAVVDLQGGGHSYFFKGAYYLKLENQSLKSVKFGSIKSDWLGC

[4] = molecular target: 26S proteasome non-ATPase regulatory subunit 14 (Homo sapiens, UniProt O00487); assay: inhibition of proteasome subunit RPN11 – biochemical, fluorescence polarization, uHTS hits, confirmation (AID 602368); format: functional
Chain of 26S proteasome non-ATPase regulatory subunit 14 (O00487 whole entry): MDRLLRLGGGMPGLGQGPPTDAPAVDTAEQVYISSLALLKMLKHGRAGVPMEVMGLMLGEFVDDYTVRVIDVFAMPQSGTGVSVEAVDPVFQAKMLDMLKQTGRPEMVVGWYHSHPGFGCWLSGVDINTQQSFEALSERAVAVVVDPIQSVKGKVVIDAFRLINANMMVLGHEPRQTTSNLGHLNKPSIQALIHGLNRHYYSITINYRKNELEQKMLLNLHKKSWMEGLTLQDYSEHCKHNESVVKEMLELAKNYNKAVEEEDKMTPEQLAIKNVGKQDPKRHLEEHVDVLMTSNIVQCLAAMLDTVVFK

Prothrombin = Prothrombin (Bos taurus, UniProt P00735); assay: thrombin inhibition, dose response, biochemical, fluorescence polarization, uHTS hits (AID 602369); format: functional
[5] = control 3'UTR Renilla luciferase suppression, dose response, counter-screen for Shn3 inhibitor project, cell-based, Clone20-Shn3RL, cherry-picked (AID 624133); format: functional
[6] = cytotoxicity toward NIH3T3 fibroblasts, dose response, counter-screen, cell-based, ATP luminescence, mouse fibroblasts (AID 2010); format: functional;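 note: cells exposed to compound for about 90 hours before reading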
Melanocortin receptor 4 = Melanocortin receptor 4 (Homo sapiens, UniProt P32245); format: functional, cell-based;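 note: Cell-based assay with luminescence read-out, confirmatory dose-response testing for agonist activity of biased ligands at MC4R; human U2OS cells with tagged receptor and beta-arrestin; potency of agonists that increase receptor coupling to beta-arrestin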
Chain of Melanocortin receptor 4 (P32245 whole entry): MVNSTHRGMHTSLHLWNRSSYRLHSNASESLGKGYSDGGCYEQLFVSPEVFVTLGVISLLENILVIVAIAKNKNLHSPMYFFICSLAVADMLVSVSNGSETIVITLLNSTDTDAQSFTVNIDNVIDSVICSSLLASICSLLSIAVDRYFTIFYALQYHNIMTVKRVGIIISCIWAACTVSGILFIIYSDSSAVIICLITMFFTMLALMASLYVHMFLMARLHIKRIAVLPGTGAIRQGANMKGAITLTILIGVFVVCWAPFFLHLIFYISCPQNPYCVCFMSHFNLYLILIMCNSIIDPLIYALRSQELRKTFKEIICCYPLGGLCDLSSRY

[7] = inhibitors of intracellular T. cruzi replication, confirmation, NIH3T3 host cells, beta-gal luminescence (AID 2044); format: functional, cell-based;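 note: intracellular parasites grown in NIH/3T3 mouse fibroblasts as host cells; luminescent beta-galactosidase reporter signal from transgenic T. cruzi replicating inside host cells; inhibitors lower the luminescence signal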
[8] = Shn3 3'UTR reporter inhibitors, dose response, cell-based, Clone20 osteoblasts, firefly luciferase, cherry-picked (AID 624132); format: functional;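 note: firefly luciferase luminescence from reporter carrying the Shn3 3'UTR in osteoblasts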
[9] = HepG2 cell cytotoxicity, dose response, cytotoxicity control for Shn3 inhibitor project, CellTiter-Glo, cherry-picked (AID 624134); format: functional, cell-based
[10] = molecular target: T2, Polyadenylate-binding protein 1 (Homo sapiens, UniProt P11940); assay: PABP1 MLLE–PAM2 binding inhibitor potency, dose response, biochemical, fluorescence polarization, FITC-PAM2 peptide (AID 602259); format: functional; conditions: read-out: IC50_Mean
T2 sequence (P11940 whole entry): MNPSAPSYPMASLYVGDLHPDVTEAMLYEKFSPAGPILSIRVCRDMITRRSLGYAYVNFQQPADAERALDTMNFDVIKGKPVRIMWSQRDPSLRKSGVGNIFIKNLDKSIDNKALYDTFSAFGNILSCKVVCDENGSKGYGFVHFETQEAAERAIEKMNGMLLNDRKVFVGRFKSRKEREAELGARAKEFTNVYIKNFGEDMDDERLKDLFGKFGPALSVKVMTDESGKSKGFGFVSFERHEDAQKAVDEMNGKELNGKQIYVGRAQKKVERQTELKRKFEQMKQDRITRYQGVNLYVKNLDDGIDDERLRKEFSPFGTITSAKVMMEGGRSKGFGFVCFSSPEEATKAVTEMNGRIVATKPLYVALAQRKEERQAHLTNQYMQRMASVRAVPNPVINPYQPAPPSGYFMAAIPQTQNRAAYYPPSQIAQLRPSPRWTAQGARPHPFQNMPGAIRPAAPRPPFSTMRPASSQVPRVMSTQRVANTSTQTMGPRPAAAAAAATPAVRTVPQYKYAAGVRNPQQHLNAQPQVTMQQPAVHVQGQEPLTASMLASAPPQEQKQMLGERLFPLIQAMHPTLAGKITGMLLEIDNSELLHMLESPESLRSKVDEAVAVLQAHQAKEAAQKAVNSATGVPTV

[11] = molecular target: T2, Polyadenylate-binding protein 1; assay: PABP1 MLLE–PAM2 interaction inhibitors, dose response, miRNA deadenylation inhibitor project, biochemical, fluorescence polarization, Cy5-PAM2 peptide, secondary (AID 602260); format: functional; conditions: read-out: IC50_Mean
[12] = molecular target: T3, Endoribonuclease toxin MazF (Escherichia coli K-12, UniProt P0AE70); assay: MazF toxin RNase activators, dose response, biochemical, fluorescence, single-stranded RNA substrate, uHTS hits (AID 588481); format: functional
T3 sequence (P0AE70 whole entry): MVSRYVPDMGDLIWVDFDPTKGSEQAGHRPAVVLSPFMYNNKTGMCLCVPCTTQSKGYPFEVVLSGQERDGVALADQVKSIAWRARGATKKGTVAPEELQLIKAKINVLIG

[13] = molecular target: T3, Endoribonuclease toxin MazF; assay: fluorescent RNA oligo signal without MazF, dose response, counter-screen for MazEF activator project, biochemical, fluorescence, single-stranded RNase substrate (AID 588502); format: functional
[14] = molecular target: T4, Corticotropin-releasing factor receptor 2/Corticotropin-releasing factor-binding protein (Homo sapiens, UniProt P24387+Q13324); assay: activators of CRF receptor 2 with binding protein – uHTS hits, confirmation (AID 602473); format: functional; conditions: read-out: EC50_Mean
T4 sequence (Q13324 whole entry): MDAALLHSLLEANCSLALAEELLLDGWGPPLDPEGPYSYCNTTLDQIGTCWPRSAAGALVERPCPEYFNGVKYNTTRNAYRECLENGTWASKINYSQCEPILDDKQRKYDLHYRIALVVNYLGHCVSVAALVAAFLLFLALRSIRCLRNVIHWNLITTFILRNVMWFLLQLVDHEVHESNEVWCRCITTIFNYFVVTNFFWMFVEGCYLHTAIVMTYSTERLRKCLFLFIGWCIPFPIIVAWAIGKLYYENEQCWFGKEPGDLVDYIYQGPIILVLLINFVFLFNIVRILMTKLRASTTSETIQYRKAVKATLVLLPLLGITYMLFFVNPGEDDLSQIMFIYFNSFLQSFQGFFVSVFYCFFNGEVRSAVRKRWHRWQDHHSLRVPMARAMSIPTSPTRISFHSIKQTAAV
T4 sequence (P24387 whole entry): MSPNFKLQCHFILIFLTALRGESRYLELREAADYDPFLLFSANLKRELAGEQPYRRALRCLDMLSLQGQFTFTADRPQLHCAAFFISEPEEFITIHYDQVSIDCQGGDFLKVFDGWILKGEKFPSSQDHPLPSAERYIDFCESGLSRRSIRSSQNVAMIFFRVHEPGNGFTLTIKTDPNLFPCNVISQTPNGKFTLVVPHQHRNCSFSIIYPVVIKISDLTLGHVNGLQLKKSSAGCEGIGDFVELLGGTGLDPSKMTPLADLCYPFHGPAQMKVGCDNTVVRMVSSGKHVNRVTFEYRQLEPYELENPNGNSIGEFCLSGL

Caspase-3 = molecular target: T5, Caspase-3 (Homo sapiens, UniProt P42574); assay: SAR Analysis of small molecule inhibitors of Sentrin-specific proteases (SENPs) using a Caspase-3 Selectivity assay. [Related pubchem assays (depositor defined):AID2540, AID2599, AID434973, AID489001]; format: functional
T5 sequence (P42574 whole entry): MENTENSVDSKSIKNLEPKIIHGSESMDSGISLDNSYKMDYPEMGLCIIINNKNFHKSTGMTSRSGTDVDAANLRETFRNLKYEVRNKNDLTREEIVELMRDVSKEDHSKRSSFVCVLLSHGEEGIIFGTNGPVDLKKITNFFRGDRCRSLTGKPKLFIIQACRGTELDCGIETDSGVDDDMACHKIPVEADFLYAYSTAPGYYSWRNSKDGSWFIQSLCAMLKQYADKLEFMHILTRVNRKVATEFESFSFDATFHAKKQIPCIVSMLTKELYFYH

[15] = molecular target: T6, Sentrin-specific protease 8 (Homo sapiens, UniProt Q96LD8); assay: SENP8 protease inhibitors, SAR follow-up, biochemical, luminescence (AID 504501); format: functional
T6 sequence (Q96LD8 whole entry): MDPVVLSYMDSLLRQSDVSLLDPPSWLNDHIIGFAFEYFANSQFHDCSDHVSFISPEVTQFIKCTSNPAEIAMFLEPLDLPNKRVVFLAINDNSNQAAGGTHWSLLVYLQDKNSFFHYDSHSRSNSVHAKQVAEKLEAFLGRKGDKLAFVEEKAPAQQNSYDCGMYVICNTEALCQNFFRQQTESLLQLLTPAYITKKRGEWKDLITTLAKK

[16] = molecular target: T7, Sentrin-specific protease 7 (Homo sapiens, UniProt Q9BQF6); assay: SENP7 protease inhibitors, SAR follow-up, biochemical, luminescence (AID 504497); format: functional
T7 sequence (Q9BQF6 whole entry): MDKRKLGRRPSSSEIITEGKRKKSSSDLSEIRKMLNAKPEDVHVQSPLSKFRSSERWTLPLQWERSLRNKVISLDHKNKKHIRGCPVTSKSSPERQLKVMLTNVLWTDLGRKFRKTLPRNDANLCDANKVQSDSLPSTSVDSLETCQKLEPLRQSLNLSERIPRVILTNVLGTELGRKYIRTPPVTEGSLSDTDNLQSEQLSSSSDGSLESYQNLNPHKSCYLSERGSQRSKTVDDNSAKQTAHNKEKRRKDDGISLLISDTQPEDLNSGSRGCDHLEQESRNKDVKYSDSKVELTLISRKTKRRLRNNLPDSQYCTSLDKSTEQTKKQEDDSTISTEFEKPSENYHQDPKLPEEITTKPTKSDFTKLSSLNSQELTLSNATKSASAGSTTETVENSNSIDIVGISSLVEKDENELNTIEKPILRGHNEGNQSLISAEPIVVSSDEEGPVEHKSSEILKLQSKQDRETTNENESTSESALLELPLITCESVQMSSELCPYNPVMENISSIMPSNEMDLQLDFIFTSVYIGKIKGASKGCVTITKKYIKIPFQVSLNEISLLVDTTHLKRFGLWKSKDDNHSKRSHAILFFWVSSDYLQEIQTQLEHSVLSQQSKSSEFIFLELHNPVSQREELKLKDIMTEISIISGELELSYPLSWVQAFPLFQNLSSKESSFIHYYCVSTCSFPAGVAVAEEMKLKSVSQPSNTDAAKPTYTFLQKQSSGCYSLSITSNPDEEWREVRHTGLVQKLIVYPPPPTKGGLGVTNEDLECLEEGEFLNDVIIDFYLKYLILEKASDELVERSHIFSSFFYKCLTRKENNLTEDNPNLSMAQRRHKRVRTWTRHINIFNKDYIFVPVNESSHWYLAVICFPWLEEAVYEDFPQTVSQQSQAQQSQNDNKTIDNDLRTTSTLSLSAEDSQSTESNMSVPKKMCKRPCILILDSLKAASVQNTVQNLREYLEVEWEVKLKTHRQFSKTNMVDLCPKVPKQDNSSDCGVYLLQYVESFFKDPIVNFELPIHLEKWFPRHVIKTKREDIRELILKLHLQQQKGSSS

[17] = molecular target: T8, Sentrin-specific protease 6 (Homo sapiens, UniProt Q9GZR1); assay: SAR Analysis of small molecule inhibitors of Sentrin-specific protease 6 (SENP6) using a Luminescent assay. [Related pubchem assays (depositor defined):AID2582, AID2599]; format: functional
T8 sequence (Q9GZR1 whole entry): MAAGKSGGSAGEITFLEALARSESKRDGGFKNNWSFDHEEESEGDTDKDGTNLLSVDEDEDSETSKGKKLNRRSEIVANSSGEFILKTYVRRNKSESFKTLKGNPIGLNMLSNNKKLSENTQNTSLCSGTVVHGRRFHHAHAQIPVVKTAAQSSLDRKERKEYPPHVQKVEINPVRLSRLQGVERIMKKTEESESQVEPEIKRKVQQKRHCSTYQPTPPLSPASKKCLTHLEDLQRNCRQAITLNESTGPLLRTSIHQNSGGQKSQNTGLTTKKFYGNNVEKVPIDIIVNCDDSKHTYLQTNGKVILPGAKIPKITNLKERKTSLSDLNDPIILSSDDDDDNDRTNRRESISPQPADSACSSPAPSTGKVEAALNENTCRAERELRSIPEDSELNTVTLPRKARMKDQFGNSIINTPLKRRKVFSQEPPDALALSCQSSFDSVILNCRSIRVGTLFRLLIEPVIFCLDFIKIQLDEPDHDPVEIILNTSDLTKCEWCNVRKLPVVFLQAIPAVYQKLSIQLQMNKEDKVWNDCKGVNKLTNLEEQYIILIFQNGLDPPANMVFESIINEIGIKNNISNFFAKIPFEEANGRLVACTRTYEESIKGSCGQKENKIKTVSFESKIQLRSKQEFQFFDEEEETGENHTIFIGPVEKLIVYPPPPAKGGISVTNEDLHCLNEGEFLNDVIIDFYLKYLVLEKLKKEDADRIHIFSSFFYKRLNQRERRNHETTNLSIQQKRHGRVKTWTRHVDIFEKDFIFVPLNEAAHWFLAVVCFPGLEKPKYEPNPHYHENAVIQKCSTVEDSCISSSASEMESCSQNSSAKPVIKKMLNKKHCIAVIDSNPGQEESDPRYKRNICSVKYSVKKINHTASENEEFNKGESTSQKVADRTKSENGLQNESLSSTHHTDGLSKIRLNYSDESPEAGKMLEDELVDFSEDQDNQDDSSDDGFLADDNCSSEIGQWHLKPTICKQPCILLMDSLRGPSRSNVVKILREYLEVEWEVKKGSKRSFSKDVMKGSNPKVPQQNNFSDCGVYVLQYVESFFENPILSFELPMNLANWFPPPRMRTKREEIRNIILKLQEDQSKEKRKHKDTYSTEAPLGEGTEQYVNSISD

Chain of Ras and Rab interactor 1/Tyrosine-protein kinase ABL1 (P00519 whole entry, the tested form may be a part): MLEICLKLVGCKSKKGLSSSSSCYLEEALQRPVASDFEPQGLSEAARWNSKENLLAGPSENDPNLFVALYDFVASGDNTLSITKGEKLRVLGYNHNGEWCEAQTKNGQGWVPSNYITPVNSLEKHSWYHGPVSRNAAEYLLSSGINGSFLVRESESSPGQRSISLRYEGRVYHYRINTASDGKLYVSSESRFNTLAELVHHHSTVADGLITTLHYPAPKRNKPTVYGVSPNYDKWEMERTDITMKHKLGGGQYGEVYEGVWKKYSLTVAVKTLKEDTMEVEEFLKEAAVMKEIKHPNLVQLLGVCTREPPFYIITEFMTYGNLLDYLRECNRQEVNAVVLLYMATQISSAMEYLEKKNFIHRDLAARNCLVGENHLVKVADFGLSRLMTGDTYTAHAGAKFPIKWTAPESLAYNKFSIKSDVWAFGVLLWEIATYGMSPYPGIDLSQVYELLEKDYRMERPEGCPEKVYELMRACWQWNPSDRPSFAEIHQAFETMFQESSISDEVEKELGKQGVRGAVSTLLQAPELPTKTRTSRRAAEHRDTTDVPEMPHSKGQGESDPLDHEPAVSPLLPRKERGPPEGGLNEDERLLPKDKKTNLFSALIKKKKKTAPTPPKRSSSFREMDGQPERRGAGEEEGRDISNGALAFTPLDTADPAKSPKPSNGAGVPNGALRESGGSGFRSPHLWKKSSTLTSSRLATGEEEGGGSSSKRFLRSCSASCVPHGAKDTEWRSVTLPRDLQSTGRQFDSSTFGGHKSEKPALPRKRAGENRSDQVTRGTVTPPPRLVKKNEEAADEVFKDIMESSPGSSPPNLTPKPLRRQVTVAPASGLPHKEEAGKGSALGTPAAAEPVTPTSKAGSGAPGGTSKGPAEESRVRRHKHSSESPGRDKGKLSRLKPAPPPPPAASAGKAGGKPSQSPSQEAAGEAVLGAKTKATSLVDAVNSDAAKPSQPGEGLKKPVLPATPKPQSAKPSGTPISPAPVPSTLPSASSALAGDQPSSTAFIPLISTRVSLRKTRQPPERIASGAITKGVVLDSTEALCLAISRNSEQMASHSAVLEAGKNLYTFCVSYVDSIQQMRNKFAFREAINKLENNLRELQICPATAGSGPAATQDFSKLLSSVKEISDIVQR
Chain of Ras and Rab interactor 1/Tyrosine-protein kinase ABL1 (Q13671 whole entry, the tested form may be a part): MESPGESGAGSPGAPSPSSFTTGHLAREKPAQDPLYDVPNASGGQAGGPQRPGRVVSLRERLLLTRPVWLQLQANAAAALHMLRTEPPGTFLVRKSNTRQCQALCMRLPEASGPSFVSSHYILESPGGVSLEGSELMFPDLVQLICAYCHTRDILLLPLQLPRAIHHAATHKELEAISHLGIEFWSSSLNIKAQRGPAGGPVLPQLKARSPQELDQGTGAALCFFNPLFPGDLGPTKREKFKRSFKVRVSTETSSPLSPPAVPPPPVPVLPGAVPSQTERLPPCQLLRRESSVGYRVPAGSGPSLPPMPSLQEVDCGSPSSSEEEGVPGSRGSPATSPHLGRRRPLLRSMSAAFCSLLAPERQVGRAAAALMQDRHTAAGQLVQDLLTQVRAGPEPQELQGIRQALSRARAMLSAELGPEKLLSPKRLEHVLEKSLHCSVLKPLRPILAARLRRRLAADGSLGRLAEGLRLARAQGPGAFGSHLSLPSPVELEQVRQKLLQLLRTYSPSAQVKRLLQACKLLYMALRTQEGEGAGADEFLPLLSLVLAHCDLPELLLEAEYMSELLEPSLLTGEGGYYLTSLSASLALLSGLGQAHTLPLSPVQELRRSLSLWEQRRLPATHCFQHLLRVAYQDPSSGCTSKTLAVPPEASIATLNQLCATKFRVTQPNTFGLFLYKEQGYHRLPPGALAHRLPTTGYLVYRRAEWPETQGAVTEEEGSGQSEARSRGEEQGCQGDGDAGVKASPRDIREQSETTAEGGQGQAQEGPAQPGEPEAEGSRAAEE

SMILES: CC(=O)Nc1cc2c(nc1C)nc(C)n2Cc1ccc(Br)cc1
- IC50 [1]: 15.5 µM (inactive)

SMILES: Cc1ccc(NC(=O)CCc2nc(O)c3c4c(sc3n2)CCCC4)nc1
- IC50 [2]: 5.1 µM (active)
- IC50 [3]: > 100 µM (inactive)
- IC50 [4]: 23.1 µM (active)
- IC50 (Prothrombin): 55 µM (active)

SMILES: COc1ccc(CNCCc2ccc(Cl)cc2)cc1OCc1ccccc1
- AC50 [5]: 11.9 µM (active)
- EC50 [6]: > 60 µM (not active)
- EC50 (cells): 114 nM (active)
- EC50 (Melanocortin receptor 4): > 9.91 µM (active)
- EC50 [7]: < 100 nM (active)
- AC50 [8]: 5.59 µM (active)
- AC50 [9]: > 70 µM (inactive)

SMILES: CCCCn1c2ccc(F)cc2c2nnc(SCCN3CCOCC3)nc21
- IC50 [10]: > 66 µM (inactive)
- IC50 [11]: > 66 µM (inactive)

SMILES: O=[N+]([O-])c1ccc(-c2cn3nc(-c4ccccc4)c(-c4ccccc4)nc3n2)cc1
- EC50 [12]: > 99 µM (inactive)
- EC50 [13]: > 99 µM (inactive)
- EC50 [14]: > 53 µM (inactive)

SMILES: O=C(Nc1ccccc1N1CCN(C(=O)c2ccc(Cl)cc2)CC1)c1cccnc1
- IC50 [1]: 16.4 µM (inactive)

SMILES: Cc1nc(SCc2nc3cc(Br)ccc3[nH]2)c2oc3ccccc3c2n1
- IC50 [3]: > 100 µM (inactive)
- IC50 [4]: 50 µM (active)
- IC50 (Prothrombin): 40 µM (active)

SMILES: CC(C)(C)CC(=O)Nc1ccc(-c2nc3cc(Cl)ccc3o2)cc1
- IC50 (Caspase-3): > 99 µM (inactive)
- IC50 [15]: > 99 µM (inactive)
- IC50 [16]: > 99 µM (inactive)
- IC50 [17]: > 99 µM (inactive)

SMILES: CC(=O)Nc1ccc2nc(-c3ccccc3)oc2c1
- IC50 (Caspase-3): 14.2 µM (active)
- IC50 [15]: 49.9 µM (active)
- IC50 [16]: 11.6 µM (active)
- IC50 [17]: 46.5 µM (active)
